According to patent publication US20230107983A1, “COMPOUND ISOLATED FROM TORILIDIS FRUCTUS, AND ANTICANCER PHARMACEUTICAL COMPOSITION CONTAINING SAME AS ACTIVE INGREDIENT” (PHARMA-GENE CO., LTD., priority 2020, published 2023):

Assays:
[1] = Change in mouse weight, A549 xenograft, intraperitoneal administration; assay type: in vivo, nude mouse; design: Change in mouse weight: unit not given here; conditions: once a day
Experimental: The Tr-9 was dissolved in sterile PBS and 1 mM Tr-9 200 µℓ was intraperitoneally administered per mouse once a day, and all animals were weighed immediately before the start of drug (Tr-9) administration and 10 times in total from day 2 to day 23 after cancer cell transplantation (Table 4).
In Table 4 above, data values are the mean ± standard deviation. After measuring the body weight, the animals were killed using CO2 gas, and the tumor was separated and the size was measured in 3 directions using a vernier caliper for each animal. Then, the change in tumor size was expressed as a calculated value of (length × width × height)/2 (Table 4).

[2] = test system: Lung cancer(A549) cell line; experiment: WST-1 assay, cell viability of lung cancer cell line; assay type: cell-based, human; conditions: 10-100 µg/Mℓ, 24 hours, FIG. 3
Experimental: (§1) The cytotoxicity of the Tr-9 compound to six cancer cell lines was confirmed. Lung cancer(A549), gastric cancer(AGS), liver cancer(Hep3B)), breast cancer(MDA-MB-231), colorectal cancer(HCT116) and pancreatic cancer(BxPC-3) cell lines and fibroblasts were aliquoted in a 96-well plate in an amount of 5×10^3 cells/well, and the novel compound Tr-9 was treated thereto at a concentration of 10, 20, 40, 60, 80, 100 µg/Mℓ for 24 hours, respectively. Lung cancer cell line was further treated at a concentration of 100 µg/Mℓ for 24 hours, 48 hours and 72 hours.
(§2) Then, the amount of living cells was measured using WST(high sensitive Water Soluble Tetrazolium salt). WST reacts with dehydrogenase in living cells and produces orange-colored watersoluble formazan. Since dehydrogenase that reacts with WST is an enzyme present in the mitochondrial electron transport chain of metabolically active cells and is effective only in living cells, the production of formazan is proportional to the number of living cells. Therefore, the absorbance at 450 nm was measured to confirm the cell viability through the formation of formazan.

[3] = test system: breast cancer(MDA-MB-231) cell line; experiment: WST-1 assay, cell viability of breast cancer cell line; assay type: cell-based; conditions: 10-100 µg/Mℓ, 24 hours, FIG. 5
Experimental: as §1, §2

[4] = Change in mouse weight, HCT116 xenograft, intraperitoneal administration; assay type: in vivo, nude mouse; design: Change in mouse weight: unit not given here; conditions: intraperitoneal once a day
Experimental: (§3) The Tr-9 was dissolved in sterile PBS and 1 mM Tr-9 200 µℓ was intraperitoneally administered per mouse once a day, and all animals were weighed immediately before the start of drug (Tr-9) administration and 9 times in total from day 2 to day 21 after cancer cell transplantation (Table 7).
(§4) In Table 7 above, data values are the mean ± standard deviation. After measuring the body weight, the animals were killed using CO2 gas, and the tumor was separated and the size was measured in 3 directions using a vernier caliper for each animal. Then, the change in tumor size was expressed as a calculated value of (length × width × height)/2 (Table 8).

[5] = test system: liver cancer(Hep3B) cell line; experiment: WST-1 assay, cell viability of liver cancer cell line; assay type: cell-based; conditions: 10-100 µg/Mℓ, 24 hours, FIG. 6
Experimental: as §1, §2

[6] = test system: colorectal cancer(HCT116) cell line; experiment: WST-1 assay, cell viability of colorectal cancer cell line; assay type: cell-based, human; conditions: 10-100 µg/Mℓ, 24 hours, FIG. 7
Experimental: as §1, §2

[7] = test system: Human fibroblast; experiment: WST-1 assay, cell viability of fibroblasts (normal cells); assay type: cell-based; conditions: 10-100 µg/Mℓ, 24 hours, FIG. 9
Experimental: as §1, §2

[8] = test system: human colorectal cancer cells (HCT116); experiment: Nude mouse xenograft model of human colorectal cancer cells, intraperitoneal administration; assay type: in vivo
Experimental: Anticancer activity against colorectal cancer according to the intraperitoneal administration of Tr-9 was confirmed through a nude mouse xenograft model of human colorectal cancer cells (HCT116). In Example 5, Example 4 was repeated except for using colorectal cancer cells.
Specific pathogen-free (SPF) nude mice of the BALB/C strain were used as the animal model. Animals were bred in the animal room of Daedeok Campus of Hannam University maintained at a temperature of 23±3° C., relative humidity of 55±15%, ventilation frequency of 10-20 times/hr, lighting time of 12 hours(lights on at 8 am and off at 8 pm) and illuminance of 150 to 300 Lux.
For cancer cell transplantation, all cells were collected and counted on the last day of culture, and the concentration of human colorectal cancer cell line HCT116 was adjusted to 5×10^6 cells/ml using PBS. The adjusted cell culture solution was injected subcutaneously into the auxiliary region between the right scapula and chest wall at 0.2 ml (1×10^6 cells/mouse) per mouse.
as §3, §4
Tumor size increase is (Δt)═ Vt—Vo, wherein Vt is the value of measuring the tumor size by date, and Vo is the value of measuring the initial tumor size.

[9] = test system: gastric cancer(AGS) cell line; experiment: WST-1 assay, cell viability of gastric cancer cell line; assay type: cell-based; conditions: 10-100 µg/Mℓ, 24 hours, FIG. 4
Experimental: as §1, §2

[10] = test system: pancreatic cancer(BxPC-3) cell line; experiment: WST-1 assay, cell viability of pancreatic cancer cell line; assay type: cell-based; conditions: 10-100 µg/Mℓ, 24 hours, FIG. 8
Experimental: as §1, §2

Structure (SMILES): CC(=O)OC(C)(C)C1CC2=C(C)C(=O)CC2C(C)CC1OC(=O)CC(C)C (stereo not shown) [Tr-9]
- Change in mouse weight ([1]; 0 Day after drug treatment): 100.0 ±0.0
- Change in mouse weight ([1]; 2 Days after drug treatment): 98.2 ±1.0
- Change in mouse weight ([1]; 5 Days after drug treatment): 94.7 ±2.5
- Change in mouse weight ([1]; 7 Days after drug treatment): 94.1 ±2.2
- Change in mouse weight ([1]; 9 Days after drug treatment): 99.7 ±2.7
- Change in mouse weight ([1]; 12 Days after drug treatment): 96.7 ±3.1
- Change in mouse weight ([1]; 14 Days after drug treatment): 97.3 ±2.8
- Change in mouse weight ([1]; 16 Days after drug treatment): 100.2 ±1.8
- Change in mouse weight ([1]; 19 Days after drug treatment): 98.3 ±2.9
- Change in mouse weight ([1]; 21 Days after drug treatment): 99.4 ±1.6
- Change in mouse weight ([1]; 23 Days after drug treatment): 100.2 ±2.6
- difference in body weight according to the administration of the drugs ([1]; day 2 to day 23): almost no difference in body weight
- cell viability [2]: decreases the cell viability
- cell viability [3]: decreases the cell viability
- Change in mouse weight ([4]; 0 Day after drug treatment): 100.0 ±0.0
- Change in mouse weight ([4]; 2 Days after drug treatment): 99.7 ±1.7
- Change in mouse weight ([4]; 5 Days after drug treatment): 100.5 ±3.2
- Change in mouse weight ([4]; 7 Days after drug treatment): 99.9 ±4.1
- Change in mouse weight ([4]; 9 Days after drug treatment): 99.8 ±4.9
- Change in mouse weight ([4]; 11 Days after drug treatment): 98.6 ±3.5
- Change in mouse weight ([4]; 14 Days after drug treatment): 99.7 ±4.5
- Change in mouse weight ([4]; 16 Days after drug treatment): 98.5 ±6.0
- Change in mouse weight ([4]; 18 Days after drug treatment): 100.4 ±5.5
- Change in mouse weight ([4]; 21 Days after drug treatment): 102.4 ±7.0
- difference in body weight according to the administration of the drugs ([4]; day 2 to day 21): almost no difference in body weight
- cell viability [5]: decreases the cell viability
- cell viability [6]: decreases the cell viability
- cell viability of human fibroblast [7]: little change in the cell viability
- tumor size further reduced compared to the group intraperitoneally administered with the torilin ([8]; intraperitoneal): about 10%
- Tumor size increase (Vt−V0) ([8]; intraperitoneal once a day, Day 0, table title: Change in tumor size): 0.0±0.0
- Tumor size increase (Vt−V0) ([8]; intraperitoneal once a day, Day 2, table title: Change in tumor size): 53.1±17.9
- Inhibition rate (tumor size increase) ([8]; intraperitoneal once a day, Day 2, vs control): 19.8%
- Tumor size increase (Vt−V0) ([8]; intraperitoneal once a day, Day 5, table title: Change in tumor size): 139.4±40.3
- Inhibition rate (tumor size increase) ([8]; intraperitoneal once a day, Day 5, vs control): 22.9%
- Tumor size increase (Vt−V0) ([8]; intraperitoneal once a day, Day 7, table title: Change in tumor size): 312.6±71.9
- Inhibition rate (tumor size increase) ([8]; intraperitoneal once a day, Day 7, vs control): 30.1%
- Tumor size increase (Vt−V0) ([8]; intraperitoneal once a day, Day 9, table title: Change in tumor size): 453.9±112.5
- Inhibition rate (tumor size increase) ([8]; intraperitoneal once a day, Day 9, vs control): 35.1%
- Tumor size increase (Vt−V0) ([8]; intraperitoneal once a day, Day 11, table title: Change in tumor size): 648.7±112.0
- Inhibition rate (tumor size increase) ([8]; intraperitoneal once a day, Day 11, vs control): 37.0%
- Tumor size increase (Vt−V0) ([8]; intraperitoneal once a day, Day 14, table title: Change in tumor size): 849.8±110.2
- Inhibition rate (tumor size increase) ([8]; intraperitoneal once a day, Day 14, vs control): 38.3%
- Tumor size increase (Vt−V0) ([8]; intraperitoneal once a day, Day 16, table title: Change in tumor size): 1075.9±155.6
- Inhibition rate (tumor size increase) ([8]; intraperitoneal once a day, Day 16, vs control): 40.1%
- Tumor size increase (Vt−V0) ([8]; intraperitoneal once a day, Day 18, table title: Change in tumor size): 1326.9±216.2
- Inhibition rate (tumor size increase) ([8]; intraperitoneal once a day, Day 18, vs control): 35.2%
- Tumor weight at Day 21 ([8]; intraperitoneal once a day, Day 21): 2.48 ± 0.308 g
- Tumor size increase (Vt−V0) ([8]; intraperitoneal once a day, Day 21, table title: Change in tumor size): 1690.3±144.2
- Inhibition rate (tumor size increase) ([8]; intraperitoneal once a day, Day 21, vs control): 35.9%
- tumor size compared to the control group ([8]; intraperitoneal, after day 14): statistically significantly smaller
- cell viability [9]: decreases the cell viability
- cell viability [10]: decreases the cell viability
